In assay [1] the target is recombinant tau proteins (human Tau, heparin-fiberized) (Homo sapiens, UniProt P10636). Briefly: Fluorescence quantitative Tau binding assay in vitro. Particulars: 0.04 uM fiberized recombinant tau, 30 mM Tris pH 7.5, 1 h, fluorometric saturation curve. The method, then:
Expression and Purification of Human Tau Protein
• pET41a-Tau wild type • One Shot® BL21(DE3) Chemically Competent E. coli (Invitrogen, C600003) • Kanamycin sulfate (Sangon Biotech, A506636) • IPTG (Sangon Biotech, A100487) • Pipes buffer (100 mM Pipes, pH6.8, 1 mM EGTA, 1 mM MgSO4) • Hepes buffer (25 mM Hepes, pH7.2, 0.1 mM EDTA, 0.5 mM DTT, 100 mM NaCl) • Q-Sepharose Fast Flow column (GE Healthcare, 17-0510-01) • SP-Sepharose Fast Flow column (GE Healthcare, 17-0729-01) Procedures: Protein Expression: • Step 1: Transform 1 uL expression plasmid pET41a-tau wt into one One Shot® BL21(DE3) Chemically Competent E. coli, on ice 30 min. • Step 2: 42° C. heat shock 90 second and on ice 2 min, 37° C. recovery for 30 min, Plate small amount on LB(Kan+) agar plate incubate overnight at 37° C. • Step 3: Pick and resuspend a single colony in 200 mL liquid culture with 50 ug/mL Kanamycin to produce a starter culture. Inoculate starter culture and shake 200 rpm overnight at 37° C. • Step 4: Add 100× dilution Starter into fresh culture medium (Kan+) shake 200 rpm at 37° C. until OD600=0.8. • Step 5: Add IPTG (final conc. 1 mM) and express protein for 3 hr. • Step 6: Collect cell pellet and store at −80° C. for purification. Protein Purification: • Step 1: Cell pellet was resuspended in Pipes buffer. • Step 2: Sonication and centrifugation (15,000 rpm, 15 min at 4° C. • Step 3: The supernatant was placed in a boiling water bath for 20 min and subsequently centrifuged. The heat-stable proteins in the supernatant were loaded onto a Q-Sepharose Fast Flow column (20 mL) • Step 4: The flow through containing tau was loaded onto SP-Sepharose Fast Flow column (10 mL), eluted with Pipes buffer containing 0.2M NaCl. • Step 6: Fractions containing tau were pooled, concentrated and dialyzed against Hepes buffer, stored at −80° C. • Step 7: Reload SP-Flow through into Q-Sepharose Fast Flow column (20 mL) and SP-Sepharose Fast Flow column (10 mL) again, eluted with Pipes buffer containing 0.2M NaCl. • Step 8: Fractions containing tau were pooled, concentrated and dialyzed against Hepes buffer, stored at −80° C. Repeat step 6-7 twice, Collect all above all elution product and concentrated. Biological Assays Fluorescence Quantitative Tau Binding Assay In Vitro
2 uM of recombinant tau proteins and 15 uM of heparin were fiberized in 30 mM Tris (pH 7.5) buffer by overnight incubation at 37° C. 0.04 uM of recombinant tau proteins which was diluted in 30 mM Tris buffer (pH 7.5) was then reacted with test compounds (containing 1% DMSO) for 1 h. Regarding the fluorometric data, the binding saturation curve was created and the parameter estimation method was conducted using Prism software (GraphPad). Kd values were determined for each of test compounds. Table A lists Kd values of exemplary test compounds.

Assay [2] concerns the target [11C]PBB3 binding sites (tau aggregates) in temporal cortex homogenates of an Alzheimer's disease patient (Homo sapiens, UniProt P10636). Briefly: Fluorescence competitive binding assay in vitro ([11C]PBB3 displacement in Alzheimer's disease temporal cortex homogenates). Conditions: 5 nM [11C]PBB3, AD temporal cortex homogenate (100 μg tissue), 30 min, room temperature. The method, then:
Fluorescence competitive binding assay in vitro was performed as reported previously1. Frozen tissues derived from the temporal cortex of an Alzheimer's disease patient was homogenized in 50 mM Tris-HCl buffer, pH 7.4, containing protease inhibitor cocktail (cOmplete™, EDTA-free; Roche), and stored at −80° C. pending analyses. To assay radioligand binding with homologous or heterologous blockade, these homogenates (100 μg tissue) were incubated with 5 nM [11C]PBB3 (molar radioactivity: 100-150 GBq/μmol) in the absence or presence of unlabeled PBB3 at varying concentrations ranging from 10-11-106 M in Tris-HCl buffer containing 10% ethanol, pH 7.4, for 30 min at room temperature. Non-specific binding of [11C]PBB3 was determined in the presence of 5×10^−7 M PBB3. Samples were run once only and specific radioligand binding was determined as pmol/g tissue. Inhibition constant (Ki) and percentage of displacement were determined by using non-linear regression to fit a concentration-binding plot to one-site and two-site binding models derived from the Cheng-Prusoff equation with GraphPad Prism version 6.0 (GraphPad Software), followed by F-test for model selection. In a one-site homologous blockade model, dissociation constant (Kd) was calculated from homologous competitive binding using this function: Kd=Ki=IC50−Radioligand
where IC50 and [Radioligand] stand for the concentration of the competitor inducing 50% inhibition and radioligand concentration, respectively. Experiments with [^11C]PBB3 and unlabeled PBB3 were performed in a dimly lit condition to avoid photoconversion of the compounds. Table B lists Ki values of exemplary test compounds.

Assay [3] concerns tau aggregates (tangles/threads) in temporal cortex sections of an AD brain. The assay is described as follows: Histological examination by fluorescence staining of AD brain sections. It is filed as binding, human. Conditions: 0.001% (W/V) compound in 50% ethanol, 30 min, relative to PBB3; for Fluorescent binding Tangle: score for tangles; for Fluorescent binding Thread: score for threads. The method, then: The fluorescence binding assessment was performed as reported previously^1. For fluorescence labeling with PBB3 and test compounds, deparaffinized temporal cortex sections of an AD brain were incubated in 50% ethanol containing 0.001% (W/V) of PBB3 or test compound at room temperature for 30 min. The samples were rinsed with 50% ethanol for 5 min, dipped into distilled water twice for 3 min, and mounted in non-fluorescent mounting media ([…]; Vector Laboratories). Fluorescence images were captured using a DM4000 microscope (Leica) equipped with a custom filter cube for PBB3 (excitation band-pass at 391-437 nm and suppression low-pass with 458 nm cutoff).

SMILES strings stand for the structures.

A word on the Kd: it is the equilibrium constant for the complex coming apart. As a reminder, the Ki is the equilibrium dissociation constant of an inhibitor or competing ligand from its target. High values mean lower affinity, low ones higher affinity.

Chain of [11C]PBB3 binding sites (tau aggregates) in temporal cortex homogenates of an Alzheimer's disease patient (P10636 623-695 limits assumed): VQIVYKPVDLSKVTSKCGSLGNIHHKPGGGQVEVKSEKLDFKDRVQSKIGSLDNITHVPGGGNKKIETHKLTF
Chain of recombinant tau proteins (human Tau, heparin-fiberized) (P10636 whole entry): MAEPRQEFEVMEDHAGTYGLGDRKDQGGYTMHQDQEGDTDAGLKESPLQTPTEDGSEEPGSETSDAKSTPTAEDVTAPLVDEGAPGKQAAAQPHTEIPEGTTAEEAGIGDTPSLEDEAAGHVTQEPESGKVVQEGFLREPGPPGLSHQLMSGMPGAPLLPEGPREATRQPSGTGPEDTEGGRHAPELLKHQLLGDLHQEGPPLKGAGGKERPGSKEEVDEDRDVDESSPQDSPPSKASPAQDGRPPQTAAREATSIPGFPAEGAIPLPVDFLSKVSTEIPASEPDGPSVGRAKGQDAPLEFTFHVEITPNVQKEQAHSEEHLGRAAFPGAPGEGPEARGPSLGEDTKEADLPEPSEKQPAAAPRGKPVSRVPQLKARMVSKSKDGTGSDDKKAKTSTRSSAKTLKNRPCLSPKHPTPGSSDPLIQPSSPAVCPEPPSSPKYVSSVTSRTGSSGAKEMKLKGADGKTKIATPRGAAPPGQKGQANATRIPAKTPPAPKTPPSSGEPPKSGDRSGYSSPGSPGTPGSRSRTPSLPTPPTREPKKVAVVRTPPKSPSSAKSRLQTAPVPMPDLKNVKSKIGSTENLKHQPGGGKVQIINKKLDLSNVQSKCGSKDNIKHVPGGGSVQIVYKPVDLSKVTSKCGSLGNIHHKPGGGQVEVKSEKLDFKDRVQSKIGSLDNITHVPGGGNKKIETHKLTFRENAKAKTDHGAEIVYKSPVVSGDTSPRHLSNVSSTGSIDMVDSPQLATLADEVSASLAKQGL

On to `CNc1ccc(-c2ccc(-c3cn4cc(OCC(O)CF)ccc4n3)cc2)cn1` (stereo not shown) [Compound N, 1-Fluoro-3-(2-(4-(6-(methylamino)pyridin-3-yl)phenyl)imidazo[1,2-a]pyridin-6-yloxy)propan-2-ol], for which the Kd in assay [1] was determined as 260 nM. Moreover, in assay [2], the Ki was determined as 20 nM. Moreover, in assay [3], the “Fluorescent binding Tangle” value is reported as 0.5 and the “Fluorescent binding Thread” value amounted to 0.
As for `CNc1ccc(-c2ccc(-c3cc4ccncc4[nH]3)nc2F)cn1` [Compound S, 5-[2-Fluoranyl-6-(1H-pyrrolo[2,3-c]pyridin-2-yl)pyridin-3-yl]-N-methyl-pyridin-2-amine], the equilibrium dissociation constant (Kd) in assay [1] was 940 nM. This molecule also registered a Ki in assay [2] of 15 nM. In addition, in assay [3], the “Fluorescent binding Tangle” value is given as 3/3 and the “Fluorescent binding Thread” value is 3/3.
Turning to `CNc1ccc(-c2cc(F)c(-c3cc4ccncc4[nH]3)cn2)cn1` [Compound R, 4-Fluoro-N-methyl-5-(1H-pyrrolo[2,3-c]pyridin-2-yl)-2,3′-bipyridin-6′-amine], the equilibrium dissociation constant (Kd) in assay [1] came to 1820 nM. The Ki in assay [2] stood at 15 nM. Besides, in assay [3], the “Fluorescent binding Tangle” value is reported as 3/3 and the “Fluorescent binding Thread” value is 3/3.
`CNc1ccc(-c2ccc(-c3cc4cnccc4[nH]3)cc2)cn1` [Compound M, 5-(4-(1H-Pyrrolo[3,2-c]pyridin-2-yl)phenyl)-N-methylpyridin-2-amine]: the Kd in assay [1] amounted to 2630 nM. The molecule also came in with a Ki in assay [2] of 15 nM. Further, in assay [3], the “Fluorescent binding Tangle” value was determined as 2.5 and the “Fluorescent binding Thread” value is 2.
For `CNc1ccc(-c2ccc(-c3cc4ccncc4[nH]3)c(F)n2)cn1` [Compound E, 6-Fluoro-N-methyl-5-(1H-pyrrolo[2,3-c]pyridin-2-yl)-2,3′-bipyridin-6′-amine], the Kd in assay [1] stood at 2700 nM. The inhibition constant Ki in assay [2] stood at 5 nM. In assay [3], the “Fluorescent binding Tangle” value is 3/3 and the “Fluorescent binding Thread” value was 3/3.
As to `CNc1ccc(-c2ccc(-c3nc4ccc(NCC(O)CF)cc4s3)nc2)cn1` (stereo not shown) [Compound V, 1-Fluoranyl-3-[[2-[5-[6-(methylamino)pyridin-3-yl]pyridin-2-yl]-1,3-benzothiazol-6-yl]amino]propan-2-ol], in assay [1], the Kd amounted to 3570 nM. In assay [2], this molecule had a Ki of 7.5 nM. In addition, in assay [3], the “Fluorescent binding Tangle” value was 2.5/2.5 and the “Fluorescent binding Thread” value was 2.5/2.5.
`CNc1ccc(-c2cnc(-c3cc4ccncc4[nH]3)cc2F)cn1` [Compound T, 5-[4-Fluoranyl-6-(1H-pyrrolo[2,3-c]pyridin-2-yl)pyridin-3-yl]-N-methyl-pyridin-2-amine]: the Kd in assay [1] amounted to 2510 nM. In assay [2], this molecule showed a Ki of 140 nM. Also, in assay [3], the “Fluorescent binding Tangle” value is listed as 2.5/2.5 and the “Fluorescent binding Thread” value is listed as 2.5/2.5.

(Values after patent US12116364B2, “Heteroaryl compounds and uses thereof” (APRINOIA THERAPEUTICS INC., priority 2018, dated 2024).)
